Measured values reported in patent US20160115540A1, “PRODRUGS AND DRUGS” (Biogen MA Inc., priority 2013, published 2016).
Structures can show the parent of a compound that is named as a salt.

System: blood and tissues
Test: Transcriptional profiling, acute (single) dosing, EAE mice: blood and tissues
Format: in vivo
Details: 100MMF-vs-Veh
Description: EAE induction is generally performed by immunization with brain extracts, CNS proteins (such as myelin basic protein), or peptides from such protein emulsified in an adjuvant such as complete Freund's adjuvant, e.g., as described in Linker et al., Brain. 2011 March 134(Pt3): 678-92. […] FIG. 17 depicts exemplary immunophenotyping panels used to analyze various immune cell populations (e.g., T cells, T regulatory cells, NK cells, B cells, myeloid cells). […] The number of independent mice whose tissues were harvested for transcript profiling studies and whose data passed QC is shown in TABLE 15. Animals were exposed to CO2 and whole blood collected via cardiac puncture. Two 100 μl aliquots of whole blood were collected in 1.5 mL microcentrifuge tubes and snap frozen in liquid nitrogen. Peripheral (liver, spleen, kidney and jejunum) and CNS brain (cerebellum, hippocampus, striatum and cortex) tissues were harvested and snap frozen in liquid nitrogen, with special care taken to collect tissues of similar size and from the same location. All samples were stored at -80° C. until RNA extraction was conducted. For RNA preparation, frozen tissues were placed in 2 mL RNAse-free 96-well blocks with 1.5 mL QIAzol Lysis Reagent (QIAgen) and a 3.2 mm stainless steel bead (BioSpec Products, Bartlesville, Okla.). Tissues were disrupted for four cycles of 45 seconds in a Mini-Beadbeater (Biospec Products). RNA was extracted in chloroform and the aqueous phase was mixed with an equal volume of 70% ethanol. Extracted RNA was applied to RNeasy 96 plates and purified by the spin method according to the manufacturer's protocol (RNeasy 96 Universal Tissue Protocol, QIAgen, Hilden Germany). 50 ul of snap frozen mouse blood was re-suspended in lysis buffer with proteinase K and arrayed into deep-well plates for automated RNA extraction. RNA extractions were completed on […] (Beckman Coulter, Indianapolis, Ind.) using Agencourt RNAdvance Blood kit (Part number A35604) according to the manufacturer's specifications. RNA integrity was assessed using the HT RNA reagent kit (Part number 760410, Caliper Life Sciences, Hopkinton, Mass.) using a LabChip GX (PerkinElmer, Waltham, Mass.). RNA samples with a RQS score of >8.0 were considered high quality for downstream microarray processing. […] Washing and staining of the hybridized arrays were completed as described in the GeneChip Expression analysis technical manual for HT plate arrays using the Genechip® Array Station (Affymetrix, Santa Clara, Calif.) with modifications as described in […] et al. The processed GeneChip® plate arrays were scanned using GeneTitan scanner (Affymetrix, Santa Clara, Calif.). Affymetrix scans were subject to quality control (QC) measures. These tests included a visual inspection of the distribution of raw signal intensities and an assessment of RNA degradation, relative log expression (RLE), and normalized unscaled standard error (NUSE). All sample scans that passed these QC metrics were included in the analysis. […] Nucleic Acids Res 2003; 31:e15; Li C, et al. Genome Biol 2001; 2:[…]0032). […] Stat Appl Genet Mol Biol 2004; 3:Article3). […] Springer Science+Business Media 2005). […] Generally, no distinct sample groupings were apparent from this analysis; however, in the following cohorts, differences in EAE severity across the mice were manifest in global gene expression patterns: An example of this animal grouping is shown in FIG. 33 for the spinal cord from the chronically-dosed 7 h EAE mice. […] Three distinct groups of mice result from unsupervised clustering, and these animal groups correlate with the cumulative EAE score. […] Subsequent analyses for the cohorts listed above only included those animals with the most severe EAE scores; however, for the cohorts 'Spinal Cord, Acute Dosing, 7 h' and 'Spleen, Acute Dosing, 12 h,' there were an insufficient number of mice in the different treatment groups to perform such a sub-analysis. […]

With `COC(=O)/C=C/C(=O)O` [MMF, monomethyl fumarate] the “FC Gm6159 /// Hnrnpr 1437526_PM_x_at” value (spleen, 7 h) was 1.50, the “FC Gsto1 1456036_PM_x_at” value (spleen, 7 h) was 1.51 and the “FC Hadhb 1437172_PM_x_at” value (spleen, 7 h) was 1.51. The “FC Herpud2 1439424_PM_x_at” value (spleen, 7 h) was 1.62, the “FC Higd1c /// Mettl7a1 /// Mettl7a2 1434150_PM_a_at” value (spleen, 7 h) was 2.40 and the “FC Higd1c /// Mettl7a2 1456510_PM_x_at” value (spleen, 7 h) was 1.61. The “FC Homer1 1437363_PM_at” value (spleen, 7 h) was 1.60, the “FC Itsn1 1435884_PM_at” value (spleen, 7 h) was 1.69 and the “FC Kctd3 1455816_PM_a_at” value (spleen, 7 h) was 1.51. The “FC Kif22 1437716_PM_x_at” value (spleen, 7 h) was 1.68, the “FC Klhl7 1428091_PM_at” value (spleen, 7 h) was 1.77 and the “FC LOC100047324 /// Sesn1 1438931_PM_s_at” value (spleen, 7 h) was 1.52. For the same molecule, the “FC Lmcd1 1424596_PM_s_at” value (spleen, 7 h) was 1.64, the “FC Lnp 1453035_PM_at” value (spleen, 7 h) was 1.69 and the “FC Lrrtm2 1455489_PM_at” value (spleen, 7 h) was 1.50. For the same molecule, the “FC Mcm4 1436708_PM_x_at” value (spleen, 7 h) was 1.72, the “FC Metap2 1434120_PM_a_at” value (spleen, 7 h) was 1.52 and the “FC Mettl7a1 1454858_PM_x_at” value (spleen, 7 h) was 1.63. The “FC Mkrn1 1434853_PM_x_at” value (spleen, 7 h) was 1.62, the “FC Myef2 1425350_PM_a_at” value (spleen, 7 h) was 1.59 and the “FC Myof 1427318_PM_s_at” value (spleen, 7 h) was 1.52. The “FC Ncapd3 1454952_PM_s_at” value (spleen, 7 h) was 1.66, the “FC Nfkb1 1427705_PM_a_at” value (spleen, 7 h) was 1.52 and the “FC Nqo1 (1423627_PM_at)” value (spleen, 7 h) was 3.23. For the same molecule, the “FC Nudt12 1453139_PM_at” value (spleen, 7 h) was 2.17, the “FC Otud5 1438985_PM_x_at” value (spleen, 7 h) was 1.51 and the “FC Pik3r1 1425514_PM_at” value (spleen, 7 h) was 1.62. For the same molecule, the “FC Pir (1429001_PM_at)” value (spleen, 7 h) was 2.78, the “FC Polh 1447837_PM_x_at” value (spleen, 7 h) was 1.64 and the “FC Prkaca 1447720_PM_x_at” value (spleen, 7 h) was 1.53. For the same molecule, the “FC Prkar1b 1440132_PM_s_at” value (spleen, 7 h) was 1.50, the “FC Prpf40a 1429436_PM_at” value (spleen, 7 h) was 1.65 and the “FC Psmc6 1417770_PM_s_at” value (spleen, 7 h) was 1.77. For the same molecule, the “FC Psmd9 1447670_PM_at” value (spleen, 7 h) was 1.73, the “FC Rab6 1447776_PM_x_at” value (spleen, 7 h) was 1.51 and the “FC Rad21 1455938_PM_x_at” value (spleen, 7 h) was 1.58. The “FC Ranbp2 1422621_PM_at” value (spleen, 7 h) was 1.50, the “FC Ranbp2 1445883_PM_at” value (spleen, 7 h) was 1.61 and the “FC Rbm39 1442745_PM_x_at” value (spleen, 7 h) was 1.54. The “FC Rdx 1416179_PM_a_at” value (spleen, 7 h) was 1.53, the “FC Rif1 1429490_PM_at” value (spleen, 7 h) was 1.66 and the “FC Rlim 1439403_PM_x_at” value (spleen, 7 h) was 1.51. The “FC Sec24a 1433934_PM_at” value (spleen, 7 h) was 1.50, the “FC Smc4 1427275_PM_at” value (spleen, 7 h) was 1.56 and the “FC Smc6 1460069_PM_at” value (spleen, 7 h) was 1.52. The “FC Smpd4 1429530_PM_a_at” value (spleen, 7 h) was 2.04, the “FC Sorbs1 1436737_PM_a_at” value (spleen, 7 h) was 1.71 and the “FC Sp4 1437508_PM_at” value (spleen, 7 h) was 1.67. For the same molecule, the “FC Srxn1 (1419942_PM_at)” value (spleen, 7 h) was 1.82, the “FC Srxn1 (1426875_PM_s_at)” value (spleen, 7 h) was 1.94 and the “FC Srxn1 (1451680_PM_at)” value (spleen, 7 h) was 1.68. For the same molecule, the “FC Suz12 1449661_PM_at” value (spleen, 7 h) was 1.56, the “FC Svip 1429146_PM_at” value (spleen, 7 h) was 1.59 and the “FC Tceb1 1452593_PM_a_at” value (spleen, 7 h) was 1.50. For the same molecule, the “FC Terf1 1443527_PM_at” value (spleen, 7 h) was 1.71, the “FC Thoc1 1420042_PM_at” value (spleen, 7 h) was 1.89 and the “FC Tmem41b 1428586_PM_at” value (spleen, 7 h) was 1.88. For the same molecule, the “FC Tmem64 1433735_PM_a_at” value (spleen, 7 h) was 1.70, the “FC Tnks2 1447522_PM_s_at” value (spleen, 7 h) was 1.63 and the “FC Tspyl1 1415908_PM_at” value (spleen, 7 h) was 1.66. The “FC Ttc14 1437878_PM_s_at” value (spleen, 7 h) was 1.53, the “FC Txnl1 1435235_PM_at” value (spleen, 7 h) was 1.59 and the “FC Usp14 1437714_PM_x_at” value (spleen, 7 h) was 1.57. The “FC Zfp800 1456790_PM_at” value (spleen, 7 h) was 1.83, the “FC Zfx 1419565_PM_a_at” value (spleen, 7 h) was 1.50 and the “FC 4930427A07Rik 1455818_PM_at” value (whole blood, 7 h) was −1.59. The “FC Klra3 /// Klra9 1425436_PM_x_at” value (whole blood, 7 h) was −2.05, the “FC Klra8 1425417_PM_x_at” value (whole blood, 7 h) was −2.10 and the “FC Rnf128 (1449036_PM_at)” value (whole blood, 7 h) was 1.54. The “FC Serpinb6b 1422804_PM_at” value (whole blood, 7 h) was −1.64, the “FC Xpc 1422532_PM_at” value (whole blood, 7 h) was 1.59 and the “FC 1445666_PM_at” value (whole blood, 12 h) was 2.14. For the same molecule, the “FC Prdm2 1453068_PM_at” value (whole blood, 12 h) was 1.70.
